This note sets out measurements from ChEMBL document CHEMBL1201862, “PubChem BioAssay data set” (2004).

Assay [1] addresses T1, Apoptotic protease-activating factor 1 (Homo sapiens, UniProt O14727).
T1 sequence (O14727 whole entry): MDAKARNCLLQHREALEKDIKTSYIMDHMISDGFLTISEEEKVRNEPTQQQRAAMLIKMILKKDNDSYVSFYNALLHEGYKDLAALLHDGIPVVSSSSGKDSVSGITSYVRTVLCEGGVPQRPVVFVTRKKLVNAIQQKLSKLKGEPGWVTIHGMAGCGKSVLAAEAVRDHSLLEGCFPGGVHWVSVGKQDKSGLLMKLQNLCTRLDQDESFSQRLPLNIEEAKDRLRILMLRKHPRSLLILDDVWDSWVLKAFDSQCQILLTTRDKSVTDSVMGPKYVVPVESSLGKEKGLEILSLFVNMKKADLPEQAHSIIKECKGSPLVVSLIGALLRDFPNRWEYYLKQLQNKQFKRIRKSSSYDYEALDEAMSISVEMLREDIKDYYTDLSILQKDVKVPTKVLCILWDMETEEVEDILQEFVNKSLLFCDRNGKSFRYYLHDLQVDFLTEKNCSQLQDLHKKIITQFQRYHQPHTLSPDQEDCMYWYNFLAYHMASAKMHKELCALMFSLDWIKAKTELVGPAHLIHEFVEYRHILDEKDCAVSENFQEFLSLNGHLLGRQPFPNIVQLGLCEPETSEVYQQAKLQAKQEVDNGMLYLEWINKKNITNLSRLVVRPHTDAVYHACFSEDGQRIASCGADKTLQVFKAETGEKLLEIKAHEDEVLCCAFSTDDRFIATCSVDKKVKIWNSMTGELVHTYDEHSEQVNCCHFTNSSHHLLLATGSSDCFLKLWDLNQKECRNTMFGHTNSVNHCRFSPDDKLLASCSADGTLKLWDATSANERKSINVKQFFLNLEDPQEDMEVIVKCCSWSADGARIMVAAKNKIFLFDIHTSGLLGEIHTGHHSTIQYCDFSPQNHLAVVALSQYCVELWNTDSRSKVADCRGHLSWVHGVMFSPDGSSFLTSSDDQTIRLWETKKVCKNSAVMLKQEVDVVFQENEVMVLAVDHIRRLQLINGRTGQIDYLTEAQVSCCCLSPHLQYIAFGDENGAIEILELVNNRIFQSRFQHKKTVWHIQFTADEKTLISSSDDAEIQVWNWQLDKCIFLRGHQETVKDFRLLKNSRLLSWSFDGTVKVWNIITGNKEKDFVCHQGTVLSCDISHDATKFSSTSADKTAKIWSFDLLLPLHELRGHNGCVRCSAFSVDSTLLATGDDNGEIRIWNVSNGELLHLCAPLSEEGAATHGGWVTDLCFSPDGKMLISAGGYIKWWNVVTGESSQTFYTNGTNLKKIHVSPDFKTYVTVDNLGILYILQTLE
The class given is functional.

The nature of assay [2]: bead-based luminescence quenchers, dual-tagged ARNT – biochemical, AlphaScreen, cherry-pick, artefact control for ARNT-TACC3 interaction inhibitor project, dose response (AID 651705).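 Also: AlphaScreen bead proximity signal that flags compounds interfering with the detection technology; potency reflects signal decrease which marks the compound as an assay artifact.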 The class given is functional. A general note: In Alpha technology, singlet oxygen from a donor bead excites a nearby acceptor bead.
The subject of assay [3] is HEK293. Kind of assay: EBV LMP1 TES2 canonical NF-kB signalling blockers – cell-based, HEK293, luciferase, cherry-pick, dose response (AID 588343). The class given is functional. The conditions noted are these: Homo sapiens.
For assay [4], the target named is T2, Sentrin-specific protease 6 (Homo sapiens, UniProt Q9GZR1).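 Also: Luminescence-based dose-response confirmatory assay of SENP6 inhibition, following up an ultra-high-throughput screen.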
T2 sequence (Q9GZR1 whole entry): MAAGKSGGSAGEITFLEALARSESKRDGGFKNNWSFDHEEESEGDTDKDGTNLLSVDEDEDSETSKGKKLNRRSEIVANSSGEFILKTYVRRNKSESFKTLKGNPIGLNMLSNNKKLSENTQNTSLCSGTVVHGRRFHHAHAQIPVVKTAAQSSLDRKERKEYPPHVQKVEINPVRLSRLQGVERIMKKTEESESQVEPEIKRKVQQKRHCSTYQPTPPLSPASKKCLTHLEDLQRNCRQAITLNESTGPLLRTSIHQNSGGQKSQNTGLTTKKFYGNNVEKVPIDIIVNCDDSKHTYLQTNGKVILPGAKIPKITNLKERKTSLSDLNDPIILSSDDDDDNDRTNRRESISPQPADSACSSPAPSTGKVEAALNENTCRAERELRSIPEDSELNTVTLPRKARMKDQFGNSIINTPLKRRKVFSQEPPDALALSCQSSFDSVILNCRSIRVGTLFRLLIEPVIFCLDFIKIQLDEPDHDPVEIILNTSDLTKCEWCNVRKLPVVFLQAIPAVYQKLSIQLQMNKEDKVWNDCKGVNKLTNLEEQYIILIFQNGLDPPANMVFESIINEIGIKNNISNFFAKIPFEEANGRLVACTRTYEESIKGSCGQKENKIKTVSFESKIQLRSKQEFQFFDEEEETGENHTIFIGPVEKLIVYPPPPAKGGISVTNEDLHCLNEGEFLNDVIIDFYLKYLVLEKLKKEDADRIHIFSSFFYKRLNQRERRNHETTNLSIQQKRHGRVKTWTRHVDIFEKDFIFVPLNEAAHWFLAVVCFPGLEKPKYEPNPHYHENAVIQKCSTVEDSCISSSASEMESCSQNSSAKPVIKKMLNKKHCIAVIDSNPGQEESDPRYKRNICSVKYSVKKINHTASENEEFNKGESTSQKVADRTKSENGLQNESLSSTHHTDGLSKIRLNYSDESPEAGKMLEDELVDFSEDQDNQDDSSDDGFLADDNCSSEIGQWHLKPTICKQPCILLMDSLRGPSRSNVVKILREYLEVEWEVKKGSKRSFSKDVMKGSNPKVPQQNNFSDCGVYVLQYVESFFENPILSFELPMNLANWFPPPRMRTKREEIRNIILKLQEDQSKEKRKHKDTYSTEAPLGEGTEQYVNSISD
It is filed as functional.

For assay [5], the target named is T3, Sentrin-specific protease 7 (Homo sapiens, UniProt Q9BQF6).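 Also: Luminescence-based dose-response confirmation of ultra-high-throughput screening hits, measuring inhibition of SENP7.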
T3 sequence (Q9BQF6 whole entry): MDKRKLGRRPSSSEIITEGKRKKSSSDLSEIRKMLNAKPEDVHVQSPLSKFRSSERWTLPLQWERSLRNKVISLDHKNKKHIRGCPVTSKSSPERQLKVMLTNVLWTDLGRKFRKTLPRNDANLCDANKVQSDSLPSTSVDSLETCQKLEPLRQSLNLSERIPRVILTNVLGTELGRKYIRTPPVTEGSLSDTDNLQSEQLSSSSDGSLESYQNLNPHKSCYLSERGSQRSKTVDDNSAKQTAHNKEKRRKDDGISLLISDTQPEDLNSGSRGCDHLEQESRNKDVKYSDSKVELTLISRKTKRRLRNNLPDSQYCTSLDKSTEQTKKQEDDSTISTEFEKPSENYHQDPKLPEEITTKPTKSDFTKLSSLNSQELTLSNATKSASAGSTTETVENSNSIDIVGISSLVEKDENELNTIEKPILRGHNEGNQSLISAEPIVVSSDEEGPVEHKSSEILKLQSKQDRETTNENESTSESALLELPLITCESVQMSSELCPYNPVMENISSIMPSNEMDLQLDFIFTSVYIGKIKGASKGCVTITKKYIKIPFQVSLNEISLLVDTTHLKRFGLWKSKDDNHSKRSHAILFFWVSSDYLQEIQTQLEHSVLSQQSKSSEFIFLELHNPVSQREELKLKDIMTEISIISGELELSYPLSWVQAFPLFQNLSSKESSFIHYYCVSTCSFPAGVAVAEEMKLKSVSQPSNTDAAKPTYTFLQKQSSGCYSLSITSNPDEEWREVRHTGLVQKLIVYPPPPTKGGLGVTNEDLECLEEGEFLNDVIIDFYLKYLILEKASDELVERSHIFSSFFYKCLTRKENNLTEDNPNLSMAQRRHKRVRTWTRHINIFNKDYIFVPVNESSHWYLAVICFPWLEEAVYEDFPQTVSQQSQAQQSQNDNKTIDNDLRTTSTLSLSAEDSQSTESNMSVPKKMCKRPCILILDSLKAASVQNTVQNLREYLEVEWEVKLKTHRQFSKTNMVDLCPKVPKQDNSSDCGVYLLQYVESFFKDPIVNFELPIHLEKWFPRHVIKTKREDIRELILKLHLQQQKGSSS
The class given is functional.

Another assay concerns the target T4, Caspase-3 (Homo sapiens, UniProt P42574).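 Also: Dose-response selectivity test against caspase-3 for candidate inhibitors of sentrin-specific proteases (SENPs).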
T4 sequence (P42574 whole entry): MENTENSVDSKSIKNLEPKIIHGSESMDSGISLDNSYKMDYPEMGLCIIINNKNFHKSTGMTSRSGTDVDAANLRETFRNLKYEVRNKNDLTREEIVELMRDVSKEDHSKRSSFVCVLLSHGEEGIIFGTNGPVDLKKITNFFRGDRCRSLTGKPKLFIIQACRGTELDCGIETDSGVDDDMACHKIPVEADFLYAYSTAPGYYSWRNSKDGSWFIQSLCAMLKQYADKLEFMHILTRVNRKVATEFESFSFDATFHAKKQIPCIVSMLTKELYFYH
The class given is functional.

Assay [6] has as its target T5, Sentrin-specific protease 8 (Homo sapiens, UniProt Q96LD8).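 Also: luminescence read-out of SENP8 inhibition, dose-response confirmation following an ultra-high-throughput screen.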
T5 sequence (Q96LD8 whole entry): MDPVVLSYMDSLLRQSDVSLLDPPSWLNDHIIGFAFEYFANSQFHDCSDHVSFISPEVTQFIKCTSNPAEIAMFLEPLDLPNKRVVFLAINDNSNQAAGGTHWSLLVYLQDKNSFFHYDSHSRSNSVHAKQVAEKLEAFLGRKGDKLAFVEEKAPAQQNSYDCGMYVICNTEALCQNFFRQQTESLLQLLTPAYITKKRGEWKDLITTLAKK
The class given is functional.

Assay [7] concerns the target T6, Carboxy-terminal domain RNA polymerase II polypeptide A small phosphatase 1 (Homo sapiens, UniProt Q9GZU7).
T6 sequence (Q9GZU7 whole entry): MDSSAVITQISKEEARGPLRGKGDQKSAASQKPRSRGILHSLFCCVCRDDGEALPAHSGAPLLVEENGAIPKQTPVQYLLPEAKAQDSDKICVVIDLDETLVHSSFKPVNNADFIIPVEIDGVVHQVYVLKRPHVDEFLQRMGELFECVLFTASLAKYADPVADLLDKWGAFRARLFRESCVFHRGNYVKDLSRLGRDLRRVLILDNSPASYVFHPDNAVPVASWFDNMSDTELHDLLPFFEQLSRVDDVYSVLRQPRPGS
Kind of assay: CTDSP1 inhibitors, concentration-response, biochemical, absorbance readout, ultra-high-throughput screen actives (AID 540297). The class given is functional.

The nature of assay [8]: HEK-293T viability loss after treatment – luminescence, T-cell screen hits, cytotoxicity control for TCR NF-kB inhibitor project, dose response (AID 489026).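 Also: cells exposed to compound about 14 hours before the viability readout.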 The class given is functional, cell-based.
Assay [9] has as its target T7, Insulin-degrading enzyme (Homo sapiens, UniProt P14735).
T7 sequence (P14735 whole entry): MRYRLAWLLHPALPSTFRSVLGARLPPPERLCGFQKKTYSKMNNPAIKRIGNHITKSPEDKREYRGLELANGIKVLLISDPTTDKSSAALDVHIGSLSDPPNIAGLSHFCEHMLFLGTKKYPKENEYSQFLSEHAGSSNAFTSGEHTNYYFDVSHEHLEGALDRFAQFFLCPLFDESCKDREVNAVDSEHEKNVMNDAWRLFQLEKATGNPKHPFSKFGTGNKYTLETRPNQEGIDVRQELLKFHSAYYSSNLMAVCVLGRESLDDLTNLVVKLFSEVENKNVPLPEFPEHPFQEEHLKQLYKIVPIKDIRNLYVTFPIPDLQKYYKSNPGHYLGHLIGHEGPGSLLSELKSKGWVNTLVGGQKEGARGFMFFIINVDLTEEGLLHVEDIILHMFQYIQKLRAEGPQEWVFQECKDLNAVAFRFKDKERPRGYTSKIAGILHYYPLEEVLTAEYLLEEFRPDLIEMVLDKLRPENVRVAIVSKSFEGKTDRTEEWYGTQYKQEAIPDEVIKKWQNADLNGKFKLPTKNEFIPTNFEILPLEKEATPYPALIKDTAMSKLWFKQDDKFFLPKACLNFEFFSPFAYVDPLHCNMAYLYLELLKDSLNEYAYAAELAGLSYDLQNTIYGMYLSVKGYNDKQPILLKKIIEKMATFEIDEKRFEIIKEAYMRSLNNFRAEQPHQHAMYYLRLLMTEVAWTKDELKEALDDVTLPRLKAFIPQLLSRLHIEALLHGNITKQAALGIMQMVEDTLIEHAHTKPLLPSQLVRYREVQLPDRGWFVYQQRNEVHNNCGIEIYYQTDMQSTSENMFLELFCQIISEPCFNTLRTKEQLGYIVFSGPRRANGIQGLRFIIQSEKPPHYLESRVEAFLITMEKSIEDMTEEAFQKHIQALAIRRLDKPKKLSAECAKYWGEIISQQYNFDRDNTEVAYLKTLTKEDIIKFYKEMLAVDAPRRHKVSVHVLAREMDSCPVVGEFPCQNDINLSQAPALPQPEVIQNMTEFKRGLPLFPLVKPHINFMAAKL
The assay is described as follows: cellular IDE activation of Abeta substrate cleavage – fluorescence polarization, HEK cells, dose response (AID 588439). The class given is functional, cell-based.

Assay [10] deals with HEK293. Kind of assay: optical interference in Abeta FP readout, dose response, artefact control for IDE activator project, biochemical, fluorescence polarization (AID 588442). The class given is functional, cell-based. The conditions noted are these: Homo sapiens. In general terms: Fluorescence polarisation rises when a labelled molecule tumbles more slowly, as on binding a larger partner.

Assay [11] addresses T7, Insulin-degrading enzyme. Kind of assay: recombinant IDE activation, cell-free – biochemical, fluorescence polarization, counter-screen for IDE activator project, dose response (AID 588681).
In assay [12] the test system is HEK293. Kind of assay: membrane integrity loss in HEK cells – cell-based, fluorescence, cytotoxicity control for IDE activator project, dose response (AID 588440).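 Also: cytotoxicity by LDH release measuring loss of membrane integrity.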 The class given is functional. The conditions noted are these: Homo sapiens.

The structures appear in SMILES notation. Active and inactive are the calls of the source.

As to `CCCN(CC(=O)Nc1ccccc1C)C(=O)CCCOc1ccc(Br)cc1`, in [1], the IC50 is > 100 µM (inactive).

In the case of `Cc1nc2ncccn2c1-c1csc(Nc2ccccc2)n1`, the AC50 was 93.5 µM (active) in [2] and 28.1 µM (active) in the assay on HEK293 [3].

On to `Clc1ccc(-c2nnc(NC3=NCCCCC3)o2)cc1`, for which the IC50 is 30.1 µM (active) in assay [4], 15.4 µM (active) in assay [5], 15 µM (active) on Caspase-3 and 29.8 µM (active) in assay [6]. In addition, in the assay on HEK293 [3], the half-maximal activity concentration (AC50) was 1.84 µM (active).

For `COc1cc2nc(NC(=O)c3ccco3)sc(=O)c2cc1OC`, the half-inhibitory concentration (IC50) is 10.5 µM (active) in assay [7] and > 80 µM (inactive) in [8]. Also, the half-maximal activity concentration (AC50) in the assay with HEK293 [3] was 6.84 µM (active).

Turning to `CSc1ccccc1OCc1cc(C(=O)NCCn2nc(C)cc2C)no1`, the EC50 at Insulin-degrading enzyme [9], in the assay on HEK293 [10] and at Insulin-degrading enzyme [11] was > 54.7 µM (inactive) in each case. The IC50 with HEK293 [12] is > 89.2 µM (inactive).

Usually IC50 stands for the midpoint of a concentration-inhibition curve. Usually AC50 stands for the concentration at which the activity in the assay is half-maximal. What is called EC50 is the concentration giving half of the maximal effect.
